Patent publication US4707491A, “Anticonvulsant γ-thiobutyrolactone derivatives” (Washington University, priority 1985, dated 1987)
Where two headings read alike, the source gives them in different places.

Legend:
[1] = test system: maximal electroshock seizures; experiment: Maximal Electroshock Seizure Test; type: in vivo, mice; details: for anti-MES activity: comparison of anticonvulsant profiles
Protocol: One recognized test which is frequently used for this purpose is to determine the capacity of the drug to modify the effects of maximal electric shock (MES) by inhibition of tonic hindlimb extension. See, for example, the test described by Swinyard and co-workers at J. Pharmacol. Exper. Therap. 106, 319-330 (1952).
(§1) Compounds were tested for anticonvulsant activity and toxicity in mice by the following tests.
Maximal Electroshock Seizure Test
At the time of peak effect of the test substance, a drop of 0.9% sodium chloride is applied to the eyes of each animal. Corneal electrodes are applied to the eyes, and an electrical stimulus of 50 mA is delivered for 0.2 sec. The animals are held by hand and released at the time of stimulation for observation of the seizure. Abolition of the hindleg tonic extension component is taken as the endpoint for this test.

[2] = test system: pentylenetetrazol seizures; experiment: Pentylenetetrazol Seizure Threshold Test; type: in vivo; details: Mus musculus, mice
Protocol: See, for example, Krall et al., Epilepsia 19, 409-428 (1978).
as §1
Pentylenetetrazol Seizure Threshold Test
The animals are placed in isolation cages and observed for the next 30 min. for the presence or absence of a seizure. A threshold convulsion is defined as one episode of clonic spasms that persists for at least a 5-sec period.

[3] = Rotorod Test for Toxicity; details: mouse, in vivo; mice; rotorod at 6 rpm, 10 min; at time of peak effect
Protocol: The rotorod test is a standard method used in mice to access neurotoxicity and is described, for example, by Krall et al., Epilepsia 19, 409-428 (1978).
as §1
Rotorod Test for Toxicity
This test is used in mice to assess neurotoxicity. Mice are placed on the rotorod, which rotates at 6 rpm, and tested for maintenance of their equilibrium for 10 min. All mice are pre-tested before test substance is given. At the time of peak effect of the test substance, mice are put back on the rotorod for 10 min. Neurological deficit (toxicity) is indicated by the inability of the animal to maintain its equilibrium for 10 min. on this rotating rod.

[4] = read-out: ED50 against (clonic) seizures produced by 85 mg/kg pentylenetetrazol, 85 mg/kg pentylenetetrazol IP, clonic (threshold) seizures

Structure (SMILES)	anti-MES activity [1]	ED50 [2, 4] [mg/kg]	ED50 ([1]; Mus musculus, read-out: ED50 against maximal electroshock seizures (MES)) [mg/kg]	TD50 [3] [mg/kg]	ED50 ([2]; read-out: ED50 against clonic seizures produced by 100 mg/kg pentylenetetrazol, 100 mg/kg pentylenetetrazol IP, clonic seizures) [mg/kg]	ED50 ([2]; read-out: ED50 against tonic seizures produced by 100 mg/kg pentylenetetrazol, 100 mg/kg pentylenetetrazol IP, tonic seizures) [mg/kg]	protection against maximal electroshock seizures ([1]; mice, at doses up to 350 mg/kg)
CCCC(CCC)C(=O)O [valproic acid]	have anti-MES activity	–	–	–	–	–	–
CC(C)C1CCSC1=O (stereo not drawn) [α-isopropyl-γ-thiobutyrolactone]	–	137	240	278	–	–	–
CCC1(C)CC(=O)NC1=O (centres unmarked) [ethosuximide]	do not	–	–	–	–	–	–
CCC1(C)CCOC1=O (stereo not drawn) [α-EMBL, α-ethyl-α-methyl-γ-butyrolactone]	do not	226	–	~350	304	250	No protection
